Source: ChEMBL document CHEMBL1201862, “PubChem BioAssay data set” (2004)
Calls of active or inactive are those of the source. Cut-off read from the data, not from the text of the source: actives have a measured IC50 and inactives only a lower limit.

Molecular target: Envelope glycoprotein gp160 (Human immunodeficiency virus 1, UniProt Q6QLK5)
Experiment: inhibitors of HIV fusion peptide binding, primary screen, biochemical, uHTS, fluorescence dequenching (AID 1986)

Sequence of Envelope glycoprotein gp160 (Q6QLK5 whole entry, the tested form may be a part): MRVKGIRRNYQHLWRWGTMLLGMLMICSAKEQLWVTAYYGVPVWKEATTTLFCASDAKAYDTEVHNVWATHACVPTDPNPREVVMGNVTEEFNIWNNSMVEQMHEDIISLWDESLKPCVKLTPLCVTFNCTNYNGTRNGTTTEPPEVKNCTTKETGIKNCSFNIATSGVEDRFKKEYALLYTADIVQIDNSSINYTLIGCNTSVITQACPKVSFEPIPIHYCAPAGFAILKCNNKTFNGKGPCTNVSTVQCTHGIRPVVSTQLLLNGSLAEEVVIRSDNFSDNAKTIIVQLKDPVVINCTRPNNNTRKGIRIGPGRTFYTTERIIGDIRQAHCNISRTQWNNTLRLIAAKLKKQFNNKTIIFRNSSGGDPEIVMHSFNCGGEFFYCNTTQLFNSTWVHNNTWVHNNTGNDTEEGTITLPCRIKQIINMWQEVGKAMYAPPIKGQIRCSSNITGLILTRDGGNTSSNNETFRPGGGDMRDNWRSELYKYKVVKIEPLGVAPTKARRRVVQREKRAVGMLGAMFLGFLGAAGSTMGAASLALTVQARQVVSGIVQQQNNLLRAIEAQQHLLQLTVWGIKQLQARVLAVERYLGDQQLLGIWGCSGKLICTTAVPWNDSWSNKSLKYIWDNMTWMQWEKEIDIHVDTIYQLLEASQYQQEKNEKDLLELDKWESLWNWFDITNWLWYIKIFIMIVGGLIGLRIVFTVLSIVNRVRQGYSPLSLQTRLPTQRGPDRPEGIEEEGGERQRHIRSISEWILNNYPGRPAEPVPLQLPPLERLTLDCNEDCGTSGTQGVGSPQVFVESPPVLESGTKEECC

Row | Structure (SMILES) | IC50
1 | O=C(COc1ccc2ccccc2c1)Nc1cccc(C(=O)Nc2ccccc2C(=O)O)c1 | 14.3 µM (active)
2 | CCOC(=O)c1sc(N2C(=O)C(O)=C(C(=O)c3ccco3)C2c2ccc([N+](=O)[O-])cc2)nc1C (stereo not given) | 17.6 µM (active)
3 | O=C(O)c1ccc(Nc2nc(-c3cc4ccccc4oc3=O)cs2)cc1O | 11.5 µM (active)
4 | O=C(O)CCN1C(=O)/C(=C\c2cccc(OCC(=O)Nc3ccc(Cl)cc3)c2)SC1=S | 13.2 µM (active)
5 | COc1ccccc1OCCOc1ccc(/C=C2\C(=N)N3N=C(S(C)(=O)=O)SC3=NC2=O)cc1 | 33.8 µM (active)
